The text below walks through data of US20140100107A1, “TERNARY FUNGICIDAL COMPOSITIONS COMPRISING A DITHIINO-TETRACARBOXAMIDE FUNGICIDE” (BAYER INTELLECTUAL PROPERTY GMBH, priority 2011, published 2014).

The test deals with Alternaria solani. The experiment in a line: Alternaria test (tomatoes)/preventive. Particulars: preventive spray, evaluated 3 days after inoculation. The test is classed as in vivo. As for the experimental part:
Alternaria Test (Tomatoes)/Preventive [table] To produce a suitable preparation of active compound, 1 part by weight of active compound is mixed with the stated amounts of solvent and emulsifier, and the concentrate is diluted with water to the desired concentration. To test for preventive activity, young plants are sprayed with the preparation of active compound at the stated rate of application. After the spray coating has dried on, the plants are inoculated with an aqueous spore suspension of Alternaria solani. The plants are then placed in an incubation cabinet at approximately 20° C. and a relative atmospheric humidity of 100%. The test is evaluated 3 days after the inoculation. 0% means an efficacy which corresponds to that of the untreated control while an efficacy of 100% means that no disease is observed.

Take `Cn1c(=O)c2sc3c(=O)n(C)c(=O)c3sc2c1=O` [(1.1), 2,6-dimethyl-1H,5H-[1,4]dithiino[2,3-c:5,6-c′]dipyrrole-1,3,5,7(2H,6H)-tetrone]: the “Efficacy in % found (activity found)” value (application rate 10 ppm a.i.) is 0%.

On to `CC(C)(C)C(O)(CCc1ccc(Cl)cc1)Cn1cncn1` (stereo not drawn) [(3.47), tebuconazole], for which, where the note is “application rate 1 ppm a.i.”, the “Efficacy in % found (activity found)” value turned out to be 21%.

As for `O=C(NCCc1ncc(C(F)(F)F)cc1Cl)c1ccccc1C(F)(F)F` [(2.6), fluopyram], the “Efficacy in % found (activity found)” value (application rate 1 ppm a.i.) was found to be 7%.
